Earlier results as cited in patent US20150119339A1, “USE OF HMB TO IMPROVE HEALTH OUTCOMES FOR HOSPITALIZED PATIENTS” (ABBOTT LABORATORIES, priority 2012, published 2015).

Settings: three grams of HMB; older (70±1 yr) men and women; 10 days voluntary bed rest; not statistically different

In the case of `CC(C)(O)CC(=O)O` [HMB, 3-hydroxy-3-methylbutanoic acid], the “loss of lean body mass” value is given as “less loss of lean body mass”.
